Results as given in patent US20050123477A1, “Benzothiazole derivatives for in vivo imaging of amloid plaques” (priority 2002, published 2005).
Where no end group is shown, it is not given here.

Key:
[1] = Brain Uptake Index (BUI) method; type: in vivo; details: for Mean BUI: carotid artery bolus, decapitated after 15 seconds, relative to 14C-Butanol
Protocol: BUI is calculated according to the following equation: [formula] BUI was performed on three animals from the same test solution for each experiment. Each compound was assayed in duplicate.

[2] = Pharmacokinetics / biodistribution; type: in vivo, normal male wistar rats; details: for percentage injected dose, Blood / percentage injected dose, Brain / percentage injected dose, Fat / percentage injected dose, Kidney / percentage injected dose, LI (large intestines) / percentage injected dose, Muscle / percentage injected dose, SI (small intestines) / percentage injected dose, Skin / percentage injected dose, Spleen / percentage injected dose, Stomach / percentage injected dose, inj site / percentage injected dose, liver / percentage injected dose, lung / percentage injected dose, thyroid / percentage injected dose, urine: tail vein
Protocol: Compound 1 IMQ1961 prepared by Amersham Biosciences 250 μCi/ml (specific activity 2000Ci/mmol) freshly diluted to give 1 μCi/0.1 ml volume injection bolus. 15 normal male wistar rats 150-180 g (Charles River).
Male wistar rats were anaethetised briefly prior to injection with Compound 1 (1 μCi, 0.1 ml bolus tail vein). Biodistributions were performed at five time points (5, 15, 30, 60 and 120 mins) in triplicate animals in which tissues from brain, blood, muscle, kidney, spleen, stomach, small intestines, large intestines and faeces, bladder and urine, fat, skin and thyroid were dissected and counted for distribution of the compound in the body in a Wallac Wizzard gamma counter.
Percentage injected dose calculations were made and plotted using the Qk pharmacokinetics program to determine t½ α, and volume of distribution (VD). Relative retention (RR) and Brain:tissue ratios were calculated as follows; [formula] [formula] Results and Discussion

[3] = LogP and delta LogP; type: physicochemical
[4] = target: T1, fibrillar Beta-Amyloid Protein (BAP 1-40) (Homo sapiens, UniProt P05067); experiment: Amyloid binding on SPA beads; details: 180 minutes at room temperature, equimolar amounts, non-specific binding subtracted
T1 construct: 25 μl BAP 1-40 (10 mg/ml, Biosource 03-138); purchased Biosource 03-138 (BAP 1-40); 03-243 (biotinylated BAP 1-40)
T1 sequence (P05067 672-711 limits assumed): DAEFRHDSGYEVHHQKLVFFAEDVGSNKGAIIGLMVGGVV
Protocol: The binding of Compound 1 (74 TBq/mmol) was determined compared to the ability of ^125I-beta amyloid protein 1-40 (^125I-BAP 1-40, Amersham Biosciences IM294)) to bind to amyloid 140 fibrils. Amyloid binding was essentially performed as follows.
Three fresh buffer stocks were prepared for experiments: Buffer 1, 50 mM HEPES/0.1 % Bovine Serum Albumin (BSA) pH 7.5; Buffer 2, 50 mM HEPES/0.1% BSA/400 μM ZnCl2 pH 7.5; Buffer 3, 50 mM HEPES/0.1% BSA/100 μM ZnCl2 pH 7.5.
Streptavidin coated scintillation proximity assay beads (SA-SPA beads, Amersham Biosciences) were used to immobilise fibrillar Beta-Amyloid Protein (BAP 1-40). Amyloid coated beads (SPA-BAP) were prepared by incubating 250 μl SA-SPA beads (100 mg/ml) with 250 μl Buffer 2, 425 μl Buffer 1, 50 μl biotinylated BAP 1-40 (0.5 mg/ml, Biosource 03-243), 25 μl BAP 1-40 (10 mg/ml, Biosource 03-138). Non-specific binding SPA beads (SPA-NSB) were prepared to assess the binding of compounds to SPA beads with no associated BAP 1-40 fibrils in the following incubation: 250 μl SA-SPA beads (100 mg/ml) with 250 μL Buffer 2,500 μl Buffer 1.
SPA-BAP and SPA-NSB incubations were left for 24 hours at room temperature and then spun 1.5 ml tubes (eppendorf, Merk, 306/0421/12) for 2 minutes at 1000×g. The supernatants were removed and the beads were washed twice by resuspending them in 1 ml Buffer 3 followed by centrifugation for 2 minutes at 1000×g. Finally, washed SPA-BAP and SPA-NSB beads were resuspended in 1 ml Buffer 3.
Amyloid binding of ^125I-BAP 1-40 and Compound 1 was performed in triplicate in 0.5 ml tubes (eppendorf, Merk, 306/0421/02) by adding 50 μl SPA-BAP beads to 25 μl Buffer 2 and 25 μl labelled compound (^125I-BAP 1-40 or Compound 1). Tubes were then incubated for 180 minutes at room temperature with shaking, followed by centrifugation for 2 minutes at 1000×g. The supernatants were removed and SPA-BAP pellet washed twice with 300 μl Buffer 3 containing 1% TWEEN-20 (Sigma, P7949). Non-specific binding for labelled compounds to the SPA beads was determined using incubations as described above but by substituting SPA-BAP beads with SPA-NSB beads. Radioactivity associated with the washed SPA bead pellets was then determined.
The affinity of labelled compounds for fibrillar BAP 1-40 was estimated by subtracting SPA-NSB associated counts from SPA-BAP associated counts. The binding of labelled compounds was then compared to ^125I-BAP binding, which was taken as being 100%.
In these experiments, ^125-BAP 1-40 or Compound 1 were added in equimolar amounts (between 1-5×10^−11 mmoles per incubation).

[5] = In situ brain perfusion; type: in vivo; parameters: unit not given here; details: unidirectional brain influx constant, perfusion 2-30 minutes
[6] = Capillary depletion; details: carotid bolus, brain removed ten seconds after injection
Protocol: Compounds that may appear to cross the blood-brain barrier may be sticking to the vasculature within the brain, rather than entering the brain parenchyma. For this reason a capillary depletion method was employed that separates the capillaries from brain homogenate.
Male Wistar rats weighing 150-250 g were deeply anaesthetised by the administration of 55 mg/kg sodium pentabarbital (Rhone-Meriaux) by intra peritoneal injection. The left common carotid artery was exposed by blunt dissection, and 100 μl of test solution injected in a single bolus into the carotid using a 30G needle and 1ml syringe (injection time ˜1 second). The injectate contained both the test/validation compound and ^14C— or ^3H-Sucrose (Amersham Biosciences) as a non-diffusable standard. Ten seconds after injection, the animal was decapitated and the brain removed. […] Pellet, supernatant and a sample of injection solution were counted on a Rackbeta Excel scintillation counter, after the addition of 10 ml Hionic Fluor scintillant (Packard). ^14C/^3H-Sucrose served to correct for vascular volume of vessels contained in the pellet, and also activity that had leaked from the vasculature into the supernatant during the homogenisation procedure.
Volumes of distribution for pellet and supernatant were calculated as shown below. Data is expressed as ratio of volume of distribution in the supernatant to pellet. […]

[7] = test system: CACO-2 cells; experiment: CACO-2 cell apparent permeability (Papp), BBB model; details: CACO-2 monolayers in Transwells, 30 minutes at 37° C., donor to acceptor
Protocol: Culturing of CACO-2 cells and Determination of Apparent Permeability (Papp) Values:
The seeding of 12 mm Transwells was as follows for CACO-2. Flasks of confluent cultures were trypsinsed and cells were carefully resuspended, making sure there are no clumps or air bubbles. 1.5 ml of tissue culture medium was placed in the bottom (acceptor) chamber of the wells and 0.5 ml containing 2×10^5 cells in the Transwell (donor chamber) and placed in the incubator. The cells were routinely monitored for adequate trans epithelial electrical resistance (TEER) using an EndOhm Tissue resistance measurement chamber (WPI). The subsequent maintenance and feeding of the cells on the Transwells was as follows: when feeding the wells, the medium was removed from the acceptor chamber (basolateral side) and donor chamber (apical side) of the Transwells. The medium was aspirated off with a pipette connected to a vacuum pump, being careful not to touch the filter. 0.5 ml of growth medium was then placed into the donor chamber and 1.5 ml of growth medium was placed into the acceptor chamber.
When the TEER values of the CACO-2 cell monolayers in Transwells was around 500 Ωcm^2 (300-800 Ωcm^2 was considered acceptable) permeability experiments were performed in triplicate as follows. All culture media was removed and acceptor and donor chambers were rinsed twice with Eagles Balance Salt Solution (EBSS) (Gibco) at 37° C. 1.5 ml EBSS was added to the acceptor chamber and 0.5 ml EBSS containing radiolabelled compound was added to the donor chamber. Cultures in Transwells were then incubated for 30 minutes at 37° C. at 200 rpm using a Labnet Vortemp. After 30 minutes, 100 μl aliquot was taken from the donor chamber and 750 μl from the acceptor chamber. These aliquots were then counted for radioactivity. The remaining EBSS was removed from the acceptor and donor chambers and then the Transwell was thoroughly rinsed three times la with EBSS. Next, the Transwell membrane (and associated cells) was removed using a scalpel and the amount of radiolabel associated with it was determined.
Permeability of compounds were determined by calculating their Papp value: Papp=ΔQ/Δt.60.A.Co (cm/sec)

^14C-FDG [reference compound]
Mean BUI [1]: 17.98

Cc1cc(-c2nc3cc([125I])ccc3s2)ccc1N [Compound 1, 5-[^125I]-iodo-2-(4′-amino-3′-methylphenyl)benzothiazole]
t½ (α) of clearance from brain ([2]; 1 μCi tail vein bolus): 12.4 min | relative retention, blood ([2]; 5 minutes): 1.04 | relative retention, brain ([2]; 5 minutes): 1.01 | thyroid uptake ([2]; over two hour experiment, indicates in vivo stability to deiodination): < 1% | Clearance through the body ([2]; rat, in vivo): largely via the hepatobiliary system | percentage injected dose, Blood ([2]; 5 min): 6.05 % ID | percentage injected dose, Brain ([2]; 5 min): 0.94 % ID | percentage injected dose, Fat ([2]; 5 min): 30.82 % ID | percentage injected dose, Kidney ([2]; 5 min): 3.14 % ID | percentage injected dose, LI (large intestines) ([2]; 5 min): 1.53 % ID | percentage injected dose, Muscle ([2]; 5 min): 21.49 % ID | percentage injected dose, SI (small intestines) ([2]; 5 min): 9.04 % ID | percentage injected dose, Skin ([2]; 5 min): 8.92 % ID | percentage injected dose, Spleen ([2]; 5 min): 0.69 % ID | percentage injected dose, Stomach ([2]; 5 min): 1.82 % ID | percentage injected dose, inj site ([2]; 5 min): 2.12 % ID | percentage injected dose, liver ([2]; 5 min): 19.47 % ID | percentage injected dose, lung ([2]; 5 min): 1.40 % ID | percentage injected dose, thyroid ([2]; 5 min): 0.16 % ID | percentage injected dose, urine ([2]; 5 min): 0.04 % ID | percentage injected dose, Blood ([2]; 15 min): 4.14 % ID | percentage injected dose, Brain ([2]; 15 min): 0.75 % ID | percentage injected dose, Fat ([2]; 15 min): 36.31 % ID | percentage injected dose, Kidney ([2]; 15 min): 1.60 % ID | percentage injected dose, LI (large intestines) ([2]; 15 min): 1.77 % ID | percentage injected dose, Muscle ([2]; 15 min): 19.83 % ID | percentage injected dose, SI (small intestines) ([2]; 15 min): 12.60 % ID | percentage injected dose, Skin ([2]; 15 min): 12.80 % ID | percentage injected dose, Spleen ([2]; 15 min): 0.32 % ID | percentage injected dose, Stomach ([2]; 15 min): 2.56 % ID | percentage injected dose, inj site ([2]; 15 min): 1.86 % ID | percentage injected dose, liver ([2]; 15 min): 7.48 % ID | percentage injected dose, lung ([2]; 15 min): 0.49 % ID | percentage injected dose, thyroid ([2]; 15 min): 0.16 % ID | percentage injected dose, urine ([2]; 15 min): 2.10 % ID | percentage injected dose, Blood ([2]; 30 min): 3.58 % ID | percentage injected dose, Brain ([2]; 30 min): 0.49 % ID | percentage injected dose, Fat ([2]; 30 min): 59.02 % ID | percentage injected dose, Kidney ([2]; 30 min): 0.95 % ID | percentage injected dose, LI (large intestines) ([2]; 30 min): 1.90 % ID | percentage injected dose, Muscle ([2]; 30 min): 12.59 % ID | percentage injected dose, SI (small intestines) ([2]; 30 min): 21.93 % ID | percentage injected dose, Skin ([2]; 30 min): 16.90 % ID | percentage injected dose, Spleen ([2]; 30 min): 0.19 % ID | percentage injected dose, Stomach ([2]; 30 min): 6.66 % ID | percentage injected dose, inj site ([2]; 30 min): 3.05 % ID | percentage injected dose, liver ([2]; 30 min): 4.46 % ID | percentage injected dose, lung ([2]; 30 min): 0.48 % ID | percentage injected dose, thyroid ([2]; 30 min): 0.39 % ID | percentage injected dose, urine ([2]; 30 min): 1.63 % ID | percentage injected dose, Blood ([2]; 60 min): 2.77 % ID | percentage injected dose, Brain ([2]; 60 min): 0.29 % ID | percentage injected dose, Fat ([2]; 60 min): 73.92 % ID | percentage injected dose, Kidney ([2]; 60 min): 0.63 % ID | percentage injected dose, LI (large intestines) ([2]; 60 min): 7.75 % ID | percentage injected dose, Muscle ([2]; 60 min): 7.79 % ID | percentage injected dose, SI (small intestines) ([2]; 60 min): 28.42 % ID | percentage injected dose, Skin ([2]; 60 min): 17.14 % ID | percentage injected dose, Spleen ([2]; 60 min): 0.15 % ID | percentage injected dose, Stomach ([2]; 60 min): 8.98 % ID | percentage injected dose, inj site ([2]; 60 min): 1.83 % ID | percentage injected dose, liver ([2]; 60 min): 3.12 % ID | percentage injected dose, lung ([2]; 60 min): 0.34 % ID | percentage injected dose, thyroid ([2]; 60 min): 0.17 % ID | percentage injected dose, urine ([2]; 60 min): 8.39 % ID | percentage injected dose, Blood ([2]; 120 min): 2.27 % ID | percentage injected dose, Brain ([2]; 120 min): 0.18 % ID | percentage injected dose, Fat ([2]; 120 min): 55.62 % ID | percentage injected dose, Kidney ([2]; 120 min): 0.45 % ID | percentage injected dose, LI (large intestines) ([2]; 120 min): 3.12 % ID | percentage injected dose, Muscle ([2]; 120 min): 5.60 % ID | percentage injected dose, SI (small intestines) ([2]; 120 min): 26.86 % ID | percentage injected dose, Skin ([2]; 120 min): 12.89 % ID | percentage injected dose, Spleen ([2]; 120 min): 0.08 % ID | percentage injected dose, Stomach ([2]; 120 min): 9.29 % ID | percentage injected dose, inj site ([2]; 120 min): 2.62 % ID | percentage injected dose, liver ([2]; 120 min): 2.39 % ID | percentage injected dose, lung ([2]; 120 min): 0.23 % ID | percentage injected dose, thyroid ([2]; 120 min): 0.95 % ID | percentage injected dose, urine ([2]; 120 min): 10.02 % ID | LogP [3]: 1.75 | ΔLogP [3]: −0.38 | Amyloid binding (% of 125I-BAP 1-40) [4]: 27% | Kin [5]: 49.8 | Ratio of VD supernatant/pellet [6]: 7.2 | Papp [7]: 13.7 ×10⁻⁶ cm/s | Mean BUI [1]: 43.6 | BBB penetration (from BUI) ([1]; cut off low/medium 20%): medium to high BBB penetration

^99mTc-Pn216-KKLVFF (BAP 15-20): ^99mTc-labelled BAP sequence responsible for the binding of BAP to itself
Amyloid binding (% of 125I-BAP 1-40) [4]: 9%

^125I-BAP 1-40: ^125I-beta amyloid protein 1-40, Amersham Biosciences IM294; reference taken as 100% binding
Amyloid binding (% of 125I-BAP 1-40) [4]: 100%

O=C[C@H](O)[C@@H](O)[C@H](O)[C@H](O)CO [^14C-Glucose, ^14C-glucose]
Papp [7]: 57.9 ×10⁻⁶ cm/s

CN1C(=O)CN=C(c2ccccc2)c2cc(Cl)ccc21 [^14C-diazapam, ^14C-diazepam]
Papp [7]: 24.4 ×10⁻⁶ cm/s

OCC(O)C(O)C(O)C(O)[14CH2]O (centres unmarked) [^14C-mannitol]
Papp [7]: 3.63 ×10⁻⁶ cm/s

^125I-KKLVFFA (BAP 15-21): ^125I-labelled BAP 15-21 sequence (Amersham Biosciences) (not fully specified (N-terminus); also: 125I label, site not given here)
Amyloid binding (% of 125I-BAP 1-40) [4]: 21%
